# According to article PMC12670164, “In vitro and clinical data demonstrate negligible risk of drug–drug interactions with opelconazole, a novel inhaled antifungal agent” (Journal of Antimicrobial Chemotherapy, 2025):
# Assays:
# [1] = set-up: method as in PMID 33340279; settings: cited from earlier work
# BCRP = target: T1, BCRP (Homo sapiens, UniProt Q9UNQ0); experiment: Transporter inhibition; assay type: in vitro ADME
# T1 construct: expressed in transfected cells
# T1 sequence (Q9UNQ0 1-655): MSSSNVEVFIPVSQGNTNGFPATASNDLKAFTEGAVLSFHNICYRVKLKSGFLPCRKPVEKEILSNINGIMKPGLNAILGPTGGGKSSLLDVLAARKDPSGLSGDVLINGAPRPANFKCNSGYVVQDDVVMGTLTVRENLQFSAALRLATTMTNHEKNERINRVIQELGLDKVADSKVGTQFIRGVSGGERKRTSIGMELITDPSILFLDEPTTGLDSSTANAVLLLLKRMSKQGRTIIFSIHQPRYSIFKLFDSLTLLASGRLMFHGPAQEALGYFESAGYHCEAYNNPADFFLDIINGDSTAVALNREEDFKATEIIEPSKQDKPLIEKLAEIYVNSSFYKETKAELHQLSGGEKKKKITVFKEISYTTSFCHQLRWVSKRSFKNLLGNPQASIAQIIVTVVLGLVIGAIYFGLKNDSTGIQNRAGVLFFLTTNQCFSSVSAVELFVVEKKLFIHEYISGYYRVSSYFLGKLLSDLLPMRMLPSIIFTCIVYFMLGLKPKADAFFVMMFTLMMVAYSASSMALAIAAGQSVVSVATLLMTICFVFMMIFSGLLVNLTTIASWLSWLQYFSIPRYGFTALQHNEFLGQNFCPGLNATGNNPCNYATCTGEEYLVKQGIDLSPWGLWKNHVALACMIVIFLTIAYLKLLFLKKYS
# Protocol: (§1) Human transporter protein interactions with opelconazole as a potential substrate and/or inhibitor were assessed for the following key carrier transporters: organic anion transporters, OAT1 and OAT3; organic cation transporters, OCT1 and OCT2; OATP1B1 and OATP1B3; multidrug and toxin extrusion, MATE-1 and MATE2-K; key ATP-binding cassette (ABC) transporters including P-gp, breast cancer resistance protein (BCRP) and bile salt export pump (BSEP). Two concentrations of opelconazole, 0.5 and 5 μM, were tested using MDCKII cells, human embryonic kidney 293 cells and BSEP-transfected sf9 membrane vesicles and then analysed by LC-tandem MS to determine transporter inhibition and whether opelconazole was a transporter substrate. The viability of experimental test systems was confirmed with controls and known probe substrates and probe inhibitors.
# OAT3 = target: T2, OAT3 (Homo sapiens, UniProt Q8TCC7); experiment: Transporter inhibition; assay type: in vitro ADME; settings: 0.5 and 5 μM tested
# T2 construct: expressed in transfected cells
# T2 sequence (Q8TCC7 1-542): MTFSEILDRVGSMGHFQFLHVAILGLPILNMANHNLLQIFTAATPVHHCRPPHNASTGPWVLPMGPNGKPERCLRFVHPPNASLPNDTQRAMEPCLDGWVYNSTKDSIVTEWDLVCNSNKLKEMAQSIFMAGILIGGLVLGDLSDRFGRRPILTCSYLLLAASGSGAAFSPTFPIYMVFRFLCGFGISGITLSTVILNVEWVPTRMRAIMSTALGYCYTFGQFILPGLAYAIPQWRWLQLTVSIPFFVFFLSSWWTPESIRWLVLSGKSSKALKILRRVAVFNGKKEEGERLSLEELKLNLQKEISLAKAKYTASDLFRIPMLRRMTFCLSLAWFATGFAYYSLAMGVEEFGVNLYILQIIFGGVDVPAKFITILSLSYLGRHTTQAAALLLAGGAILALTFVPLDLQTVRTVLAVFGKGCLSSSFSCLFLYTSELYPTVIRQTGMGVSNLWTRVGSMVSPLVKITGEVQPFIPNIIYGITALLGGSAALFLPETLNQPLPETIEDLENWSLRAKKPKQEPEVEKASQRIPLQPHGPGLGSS
# Protocol: as §1
# OATP1B3 = target: T3, OATP1B3 (Homo sapiens, UniProt Q9NPD5); experiment: Transporter inhibition; assay type: in vitro ADME; settings: 0.5 and 5 μM tested
# T3 construct: expressed in transfected cells
# T3 sequence (Q9NPD5 1-702): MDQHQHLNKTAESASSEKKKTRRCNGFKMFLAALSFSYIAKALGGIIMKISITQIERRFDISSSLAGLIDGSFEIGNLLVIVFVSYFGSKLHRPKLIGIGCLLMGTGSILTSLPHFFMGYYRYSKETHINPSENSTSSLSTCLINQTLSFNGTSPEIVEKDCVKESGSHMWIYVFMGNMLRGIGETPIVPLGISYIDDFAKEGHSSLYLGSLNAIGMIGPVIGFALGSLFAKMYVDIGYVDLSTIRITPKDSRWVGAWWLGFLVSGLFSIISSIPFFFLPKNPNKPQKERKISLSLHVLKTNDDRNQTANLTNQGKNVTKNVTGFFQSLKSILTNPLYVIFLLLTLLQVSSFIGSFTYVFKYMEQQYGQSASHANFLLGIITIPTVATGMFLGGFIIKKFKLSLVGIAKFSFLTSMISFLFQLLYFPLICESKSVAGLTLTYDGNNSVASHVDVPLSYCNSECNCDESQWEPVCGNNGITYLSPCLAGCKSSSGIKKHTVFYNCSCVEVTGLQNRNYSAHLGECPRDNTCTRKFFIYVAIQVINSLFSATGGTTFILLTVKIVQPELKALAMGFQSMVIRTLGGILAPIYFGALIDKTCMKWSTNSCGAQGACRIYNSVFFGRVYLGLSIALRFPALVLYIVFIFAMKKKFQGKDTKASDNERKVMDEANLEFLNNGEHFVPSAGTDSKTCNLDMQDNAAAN
# Protocol: as §1
# OAT1 = target: T4, OAT1 (Homo sapiens, UniProt Q4U2R8); experiment: Transporter inhibition; assay type: in vitro ADME; settings: 0.5 and 5 μM tested
# T4 construct: expressed in transfected cells
# T4 sequence (Q4U2R8 1-563): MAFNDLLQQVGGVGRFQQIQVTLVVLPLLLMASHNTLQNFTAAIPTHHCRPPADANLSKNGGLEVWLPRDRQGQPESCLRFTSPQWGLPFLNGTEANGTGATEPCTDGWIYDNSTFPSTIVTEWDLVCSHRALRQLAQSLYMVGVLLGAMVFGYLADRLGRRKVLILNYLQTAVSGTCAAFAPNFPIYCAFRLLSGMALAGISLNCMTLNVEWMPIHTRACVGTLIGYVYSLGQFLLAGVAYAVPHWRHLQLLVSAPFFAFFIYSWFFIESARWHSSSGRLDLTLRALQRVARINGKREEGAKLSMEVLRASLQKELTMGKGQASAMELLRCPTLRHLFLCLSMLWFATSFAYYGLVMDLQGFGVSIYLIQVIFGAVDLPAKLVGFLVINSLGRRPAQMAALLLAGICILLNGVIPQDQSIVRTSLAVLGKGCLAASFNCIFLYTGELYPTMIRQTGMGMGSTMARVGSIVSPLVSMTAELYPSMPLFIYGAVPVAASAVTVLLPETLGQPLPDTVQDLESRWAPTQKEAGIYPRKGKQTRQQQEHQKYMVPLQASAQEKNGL
# Protocol: as §1
# [2] = set-up: method as in unpublished data; L.M.R. Cass and L. Berman; settings: ref unpublished data; L.M.R. Cass and L. Berman; cited from earlier work
structure (smiles),measurement,setting,value
Cc1cc(N2CCN(c3ccc(C(=O)Nc4ccc(F)cc4)cc3)CC2)ccc1OC[C@@H]1CO[C@@](Cn2cncn2)(c2ccc(F)cc2F)C1 [opelconazole],plasma protein binding (PPB),[1],97%
same,inhibition of BCRP relative to solvent control,BCRP; 0.5 μM opelconazole,52%
same,inhibition of BCRP relative to solvent control,BCRP; 5 μM opelconazole,56%
same,inhibitory interaction with OAT3,OAT3,negligible inhibitory interactions
same,inhibitory interaction with OATP1B3,OATP1B3,negligible inhibitory interactions
same,inhibitory interaction with OAT1,OAT1,negligible inhibitory interactions
same,oral bioavailability of any swallowed fraction,[2],negligible
